Measured values from patent US5298652A, “N-substituted glycines, inhibitors of phospholipase A2” (Hoffmann-La Roche Inc., priority 1992, dated 1994).

Test system: paw edema induced by phospholipase A2 from Naja naja venom
Assay: Phospholipase A2 rat paw edema
Format: in vivo, Lewis rats
Settings: 30 mg/kg ip, 1 hr prior to PLA2, 2 hr, read-out: % Inhib of PLA2 Paw Edema 2 hr 30 mg/kg ip

Compound	inhibition in vivo at 30 mg/kg [%]
CCCCCCCCCCCCCCCCCCOc1cccc(C(=O)N(CC(=O)O)CC(=O)O)c1 [Example 4, N-(Carboxymethyl)-N-[3-(octadecyloxy)benzoyl]glycine]	35
CCCCCCCCCCOc1cc(OCCCCCCCCCC)cc(C(=O)N(CC(=O)O)CC(=O)O)c1 [Example 11, N-(Carboxymethyl)-N-[3,5-bis(decyloxy)benzoyl]glycine]	0
CCCCCCCCCCCCCCCCCCOc1cc(OCCCOc2cccc([N+](=O)[O-])c2)cc(C(=O)N(CC(=O)O)CC(=O)O)c1 [Example 22, N-(Carboxymethyl)-N-[3-[3-(3-nitrophenoxy)propoxy]-5-(octadecyloxy)benzoyl]glycine]	64
CCCCCCCCCCCCCCCCCCOc1cc(OCCCOc2cccc(N)c2)cc(C(=O)N(CC(=O)O)CC(=O)O)c1 [Example 23, N-(Carboxymethyl)-N-[3-[3-(3-aminophenoxy)propoxy]-5-(octadecyloxy)benzoyl]glycine]	40
CCCCCCCCCCCCCCCCCCOc1cc(OCCOCCOCCOCC)cc(C(=O)N(CC(=O)O)CC(=O)O)c1 [Example 48, N-(carboxymethyl)-N-[3-[2-[2-(2-ethoxyethoxy)ethoxy]ethoxy]-(5-octadecyloxy)benzoyl]glycine]	43
CCCCCCCCCCCCCC(=O)Nc1cc(NC(=O)CCCCCCCCCCCCC)cc(C(=O)N(CC(=O)O)CC(=O)O)c1 [Example 56, N-(Carboxymethyl)-N-[3,5-bis(1-oxotetradecylamino)benzoyl]glycine]	57
CCCCCCCCCCCCCCCCCCOc1ccc(O)c(C(=O)N(CC(=O)O)CC(=O)O)c1 [Example 62, N-(carboxymethyl)-N-[2-hydroxy-5-(octadecyloxy)benzoyl]glycine]	60
CCCCCCCCCCCCCCCCCCOc1ccc(C(=O)C(=O)N(CC(=O)O)CC(=O)O)cc1 [Example 65, N-(Carboxymethyl)-N-[2-[4-(octadecyloxy)phenyl]-1,2-dioxoethyl]glycine]	71
CCCCCCCCCCOc1cc(OCCCCCCCCCC)cc(C(=O)C(=O)N(CC(=O)O)CC(=O)O)c1 [Example 73, N-(Carboxymethyl)-N-[[3,5-bis(decyloxy)phenyl]-1,2-dioxoethyl]glycine]	32
